# Literature values, collected in patent US11795119B2, “Stabilized DCD and/or alkyl thiophosphoric triamide solvent systems and use in agricultural applications” (RHODIA OPERATIONS, priority 2016, dated 2023).
# Assays:
# [1] = typically above 45° C.
solubility in water,SMILES,degradation at higher temperature [1]
about 41 g/l,"N#CNC(=N)N [Dicyandiamide, 2-cyanoguanidine]",–
–,"CCCCNP(N)(N)=S [NBPT, N-(n-butyl)-thiophosphoric triamide]",degrades rapidly
